Assay results as given in patent publication US12065434B2, “Metabolites of GLP1R agonists” (Pfizer Inc., priority 2020, dated 2024).

Assays:
mouse hepatocytes = assay: In vitro metabolism of Compound 2 in mouse cryopreserved hepatocytes; type: in vitro ADME; parameters: key to Relative abundance of metabolite of Compound 2, Mouse: ND Not detected.; trace: Trace: observed by HPLC/MS measurements only.; + Minor as assessed by HPLC/UV measurements; ++ moderate as assessed by HPLC/UV measurements; +++ major as assessed by HPLC/UV measurements.; * m/z 593 and m/z 505 co-eluted in rabbit hepatocytes.; ** m/z 591 c and m/z 593 were merged in human hepatocytes and Hepatopack.; *** m/z 607 and m/z 751 b were merged in rabbit hepatocytes; settings: for metabolite of Compound 2 observed in mouse hepatocyte incubations: 10 μM Compound 2, 7.5×10^5 cells/mL, 1 and 4 hrs composite; for Relative abundance of metabolite of Compound 2, Mouse: mouse cryopreserved hepatocytes, HPLC/UV/MS
Procedure: (§1) Male CD-1 mouse hepatocytes (lot YHL), male Wistar-Han rat hepatocytes (Celsius; product number: M000065; lot: SLA), female New Zealand rabbit hepatocytes (lot 1510147), male cryopreserved cynomolgus monkey hepatocytes (Celsius; product number: M00305; lot: DNB) and mixed-gender cryopreserved human hepatocytes (Bioreclamation; product number: S01988; lot: DCM) were obtained for the hepatocyte in-vitro assessments.
(§2) At time 0 hrs 550 μL aliquots were removed from incubations and quenched with 5 volumes of ACN containing 0.1% formic acid. At 1 and 4 hrs, 275 μL aliquots were removed and quenched as above; these were combined in the same tube to prepare a composite sample. For all hepatocyte experiments, samples were processed by centrifugation at 1900×g for 5 minutes, and then the supernatant was transferred to clean glass tubes and evaporated to dryness under a stream of N2 using a Turbovap at 37° C. Sample residues were reconstituted in mobile phase prior to analysis by HPLC/UV/MS^n.
(§3) Samples were analyzed by HPLC/UV/MS^n using a Thermo Orbitrap Elite mass spectrometer in conjunction with a Thermo Open Accela UHPLC system. A 3.0×150 mm, 2.5 μm Acquity CSH C18 HPLC column (Waters) was heated to 45° C. for separation of analytes. The mobile phase was a gradient of A): water containing 0.1% formic acid, and B): acetonitrile. The flow rate was 450 μL/min, and the following gradient program was utilized: […]
(§4) UV absorbance was monitored with a photo-diode array detector from 220-450 nm. The mass spectrometer was operated in positive-ion mode with a HESI ion source at a potential of 3.0 kV, and capillary and source heater temperatures of 380 and 300° C., respectively. Sheath, auxiliary, and sweep gas flows were set to 45, 10, and 2 units, respectively. Full scan mass spectra were acquired over the range 120-1200 m/z at a resolving power of 30,000 (specified at m/z 400). Data-dependent MS^n spectra were acquired in an automated fashion at 15,000 resolving power using CID and HCD fragmentation with normalized collision energy settings of 28 and 65 V, respectively.
(§5) Metabolites were characterized by comparisons of mass spectral fragmentation patterns with that of a Compound 2 standard. All HPLC/UV/MS^n data were processed using Xcalibur v. 2.2, and integrated UV peak areas were subjected to weighted UV binning procedures utilizing an Excel template.

rat hepatocytes = assay: In vitro metabolism of Compound 2 in rat cryopreserved hepatocytes; type: in vitro ADME; parameters: key to Relative abundance of metabolite of Compound 2, Rat: ND Not detected.; trace: Trace: observed by HPLC/MS measurements only.; + Minor as assessed by HPLC/UV measurements; ++ moderate as assessed by HPLC/UV measurements; +++ major as assessed by HPLC/UV measurements.; * m/z 593 and m/z 505 co-eluted in rabbit hepatocytes.; ** m/z 591 c and m/z 593 were merged in human hepatocytes and Hepatopack.; *** m/z 607 and m/z 751 b were merged in rabbit hepatocytes; settings: for metabolite of Compound 2 observed in rat hepatocyte incubations: 10 μM Compound 2, 7.5×10^5 cells/mL, 1 and 4 hrs composite; for Relative abundance of metabolite of Compound 2, Rat: rat cryopreserved hepatocytes, HPLC/UV/MS
Procedure: as §1, §2, §3, §4, §5

rabbit hepatocytes = assay: In vitro metabolism of Compound 2 in rabbit cryopreserved hepatocytes; type: in vitro ADME; parameters: key to Relative abundance of metabolite of Compound 2, Rabbit: ND Not detected.; trace: Trace: observed by HPLC/MS measurements only.; + Minor as assessed by HPLC/UV measurements; ++ moderate as assessed by HPLC/UV measurements; +++ major as assessed by HPLC/UV measurements.; * m/z 593 and m/z 505 co-eluted in rabbit hepatocytes.; ** m/z 591 c and m/z 593 were merged in human hepatocytes and Hepatopack.; *** m/z 607 and m/z 751 b were merged in rabbit hepatocytes; settings: for metabolite of Compound 2 observed in rabbit hepatocyte incubations: 10 μM Compound 2, 7.5×10^5 cells/mL, 1 and 4 hrs composite; for Relative abundance of metabolite of Compound 2, Rabbit: rabbit cryopreserved hepatocytes, HPLC/UV/MS
Procedure: as §1, §2, §3, §4, §5

monkey hepatocytes = assay: In vitro metabolism of Compound 2 in monkey cryopreserved hepatocytes; type: in vitro ADME, cynomolgus monkey; parameters: key to Relative abundance of metabolite of Compound 2, Monkey: ND Not detected.; trace: Trace: observed by HPLC/MS measurements only.; + Minor as assessed by HPLC/UV measurements; ++ moderate as assessed by HPLC/UV measurements; +++ major as assessed by HPLC/UV measurements.; * m/z 593 and m/z 505 co-eluted in rabbit hepatocytes.; ** m/z 591 c and m/z 593 were merged in human hepatocytes and Hepatopack.; *** m/z 607 and m/z 751 b were merged in rabbit hepatocytes; settings: for metabolite of Compound 2 observed in monkey hepatocyte incubations: 10 μM Compound 2, 7.5×10^5 cells/mL, 1 and 4 hrs composite; for Relative abundance of metabolite of Compound 2, Monkey: monkey cryopreserved hepatocytes, HPLC/UV/MS
Procedure: as §1, §2, §3, §4, §5

human hepatocytes = assay: In vitro metabolism of Compound 2 in human cryopreserved hepatocytes; type: in vitro ADME; parameters: key to Relative abundance of metabolite of Compound 2, Human: ND Not detected.; trace: Trace: observed by HPLC/MS measurements only.; + Minor as assessed by HPLC/UV measurements; ++ moderate as assessed by HPLC/UV measurements; +++ major as assessed by HPLC/UV measurements.; * m/z 593 and m/z 505 co-eluted in rabbit hepatocytes.; ** m/z 591 c and m/z 593 were merged in human hepatocytes and Hepatopack.; *** m/z 607 and m/z 751 b were merged in rabbit hepatocytes; settings: for metabolite of Compound 2 observed in human hepatocyte incubations: 10 μM Compound 2, 7.5×10^5 cells/mL, 1 and 4 hrs composite; for Relative abundance of metabolite of Compound 2, Human: human cryopreserved hepatocytes, HPLC/UV/MS
Procedure: as §1, §2, §3, §4, §5

[1] = tested on: human co-cultured hepatocytes (Hepatopack); assay: In vitro metabolism of Compound 2 in human micropatterned co-cultured hepatocytes (Hepatopack); type: in vitro ADME; parameters: key to Relative abundance of metabolite of Compound 2, Hepatopack: ND Not detected.; trace: Trace: observed by HPLC/MS measurements only.; + Minor as assessed by HPLC/UV measurements; ++ moderate as assessed by HPLC/UV measurements; +++ major as assessed by HPLC/UV measurements.; * m/z 593 and m/z 505 co-eluted in rabbit hepatocytes.; ** m/z 591 c and m/z 593 were merged in human hepatocytes and Hepatopack.; *** m/z 607 and m/z 751 b were merged in rabbit hepatocytes; settings: human co-cultured hepatocytes (Hepatopack); HPLC/UV/MS
Excerpt: Micro-patterned co-cultured (MPCC) hepatocyte 24-well plates containing human donors (16 wells each) were provided by Ascendance Biotechnology (formerly Hepregen Corp. (Medford, MA). [see Wang W W W, Khetani S R, Krzyzewski S, et al. Assessment of a Micropatterned Hepatocyte Coculture System to Generate Major Human Excretory and Circulating Drug Metabolites. Drug Metab Dispos 2010; 38(10):1900-5.] The MPCCs were created at Ascendance Biotechnology and maintained in serum containing medium for 5-6 days to allow for stabilization of the co-cultures prior to shipment. A mixed-gender cryopreserved pool of 10 human donors (X008001-P; lot YFA) was used to seed the plates and was purchased from BioreclamationIVT (Westbury, NY). MPCC hepatocytes are plated with fibroblasts in a 1:3 ratio with ˜25,000 hepatocytes/well in a 24-well plate. 24-Well MPCC plates were shipped to Pfizer, fresh medium (400 μL/well) was applied and cultures were kept at 37° C. with […] and 95% relative humidity for two days. Micropatterned co-cultures containing pooled hepatocytes were allowed 7 days to fully stabilize with respect to liver-specific functions. […] At respective time points (0, 2, and 7 days), the culture medium was removed and mixed with 4 volumes of ACN, then stored frozen at −40° C. until samples could be analyzed. Samples were subsequently processed by the addition of 2.5 mL of 1:1 ACN:MeOH containing 0.1% formic acid. After vortexing, the samples were centrifuged at 1900×g for 5 min, then the supernatant was transferred to 15 mL conical tubes and evaporated under N2 using a Turbovap set at 37° C. The residues were reconstituted in mobile phase (5:95 v:v ACN:0.1% aqueous formic acid) prior to analysis by HPLC/UV/MS^n.
as §3
as §4, with “Data-dependent MS^n spectra were acquired in an automated fashion at 15,000 resolving power using CID and HCD fragmentation with normalized collision energy settings of 28 and 65 V, respectively.” left out

human GLP-1R [2] = molecular target: T1, human GLP-1R (Homo sapiens, UniProt P43220, L260F); assay: CHO GLP-1R Clone C6 - Assay 2 (HTRF cAMP agonist assay, low receptor density); type: cell-based; settings: CHO GLP-1R Clone C6 (low receptor density); for Emax: arithmetic mean, relative to 1 μM GLP-1
T1 construct: expressed in transfected cells
Procedure: GLP-1R-mediated agonist activity was determined with a cell-based functional assay utilizing an HTRF (Homogeneous Time-Resolved Fluorescence) cAMP detection kit (cAMP HI Range Assay Kit; Cis Bio cat #62AM6PEJ) that measures cAMP levels in the cell. The method is a competitive immunoassay between native cAMP produced by the cells and exogenous cAMP labeled with the dye d2. The tracer binding is visualized by a mAb anti-cAMP labeled with Cryptate. The specific signal (i.e. energy transfer) is inversely proportional to the concentration of cAMP in either a standard or an experimental sample.
The human GLP-1R coding sequence (NCBI Reference Sequence NP_002053.3, including naturally-occurring variant Leu260Phe) was subcloned into pcDNA5-FRT-TO and a clonal CHO cell line stably expressing a low receptor density was isolated using the Flp-In™ T-Rex™ System, as described by the manufacturer (ThermoFisher).
Cells were removed from cryopreservation, re-suspended in 40 mL of Dulbecco's Phosphate Buffered Saline (DPBS—Lonza Cat #17-512Q) and centrifuged at 800×g for 5 minutes at 22° C. The DPBS was aspirated, and the cell pellet was re-suspended in 10 mL of complete growth medium (DMEM:F12 1:1 Mixture with HEPES, L-Gln, 500 mL (DMEM/F12 Lonza Cat #12-719F), 10% heat inactivated fetal bovine serum (Gibco Cat #16140-071), 5 mL of 100× Pen-Strep (Gibco Cat #15140-122), 5 mL of 100× L-Glutamine (Gibco Cat #25030-081), 700 μg/mL Hygromycin (Invitrogen Cat #10687010) and 15 μg/mL Blasticidin (Gibco Cat #R21001). A 1 mL sample of the cell suspension in growth media was counted on a Becton Dickinson ViCell to determine cell viability and cell count per mL. The remaining cell suspension was then adjusted with growth media to deliver 1600 viable cells per well using a Matrix Combi Multidrop reagent dispenser, and the cells were dispensed into a white 384 well tissue culture treated assay plate (Corning 3570). The assay plate was then incubated for 48 hours at 37° C. in a humidified environment (95% O2, 5% CO2)
Varying concentrations of each compound to be tested (in DMSO) were diluted in assay buffer [HBSS with Calcium/Magnesium (Lonza/BioWhittaker cat #10-527F)/0.1% BSA (Sigma Aldrich cat #A7409-1L)/20 mM HEPES (Lonza/BioWhittaker cat #17-737E)] containing 100 μM 3-isobutyl-1-methylxanthin (IBMX; Sigma cat #15879). The final DMSO concentration in the compound/assay buffer mixture is 1%.
After 48 hours, the growth media was removed from the assay plate wells, and the cells were treated with 20 μL of the serially diluted compound in assay buffer for 30 minutes at 37° C. in a humidified environment (95% O2, 5% CO2). Following the 30 minute incubation, 10 μL of labeled d2 cAMP and 10 μL of anti-cAMP antibody (both diluted 1:20 in cell lysis buffer; as described in the manufacturer's assay protocol) were added to each well of the assay plate. The plates were then incubated at room temperature and after 60 minutes, changes in the HTRF signal were read with an Envision 2104 multi-label plate reader using excitation of 330 nm and emissions of 615 and 665 nm. Raw data were converted to nM cAMP by interpolation from a cAMP standard curve (as described in the manufacturer's assay protocol) and the percent effect was determined relative to a saturating concentration of the full agonist GLP-1 (1 μM) included on each plate. EC50 determinations were made from agonist dose response curves analyzed with a curve fitting program using a 4-parameter logistic dose response equation.

human GLP-1R [3] = molecular target: human GLP-1R (Homo sapiens, UniProt P43220); assay: CHO GLP-1R Clone H6 - Assay 1 (HTRF cAMP agonist assay)
Procedure: (§8) GLP-1R-mediated agonist activity was determined with a cell-based functional assay utilizing an HTRF (Homogeneous Time-Resolved Fluorescence) cAMP detection kit (cAMP HI Range Assay Kit; CisBio cat #62AM6PEJ) that measures cAMP levels in the cell. The method is a competitive immunoassay between native cAMP produced by the cells and exogenous cAMP labeled with the dye d2. The tracer binding is visualized by a mAb anti-cAMP labeled with Cryptate. The specific signal (i.e. energy transfer) is inversely proportional to the concentration of cAMP in either standard or experimental sample.
(§9) The human GLP-1R coding sequence (NCBI Reference Sequence NP_002053.3, including naturally-occurring variant Gly168Ser) was subcloned into pcDNA3 (Invitrogen) and a cell line stably expressing the receptor was isolated (designated Clone H6).
(§10) Cells were removed from cryopreservation, re-suspended in 40 mL of Dulbecco's Phosphate Buffered Saline (DPBS—Lonza Cat #17-512Q) and centrifuged at 800×g for 5 minutes at 22° C. The cell pellet was then re-suspended in 10 mL of growth medium [DMEM/F12 1:1 Mixture with HEPES, L-Gln, 500 mL (DMEM/F12 Lonza Cat #12-719F), 10% heat inactivated fetal bovine serum (Gibco Cat #16140-071), 5 mL of 100× Pen-Strep (Gibco Cat #15140-122), 5 mL of 100× L-Glutamine (Gibco Cat #25030-081) and 500 μg/mL Geneticin (G418) (Invitrogen #10131035)]. A 1 mL sample of the cell suspension in growth media was counted on a Becton Dickinson ViCell to determine cell viability and cell count per mL. The remaining cell suspension was then adjusted with growth media to deliver 2000 viable cells per well using a Matrix Combi Multidrop reagent dispenser, and the cells were dispensed into a white 384 well tissue culture treated assay plate (Corning 3570). The assay plate was then incubated for 48 hours at 37° C. in a humidified environment in 5% carbon dioxide.
(§11) Varying concentrations of each compound to be tested (in DMSO) were diluted in assay buffer (HBSS with Calcium/Magnesium (Lonza/BioWhittaker cat #10-527F)/0.1% BSA (Sigma Aldrich cat #A7409-1L)/20 mM HEPES (Lonza/BioWhittaker cat #17-737E) containing 100 μM 3-isobutyl-1-methylxanthin (IBMX; Sigma cat #15879). The final DMSO concentration is 1%.
(§12) After 48 hours, the growth media was removed from the assay plate wells, and the cells were treated with 20 μL of the serially diluted compound in assay buffer for 30 minutes at 37° C. in a humidified environment in 5% carbon dioxide. Following the 30 minute incubation, 10 μL of labeled d2 cAMP and 10 μL of anti-cAMP antibody (both diluted 1:20 in cell lysis buffer; as described in the manufacturer's assay protocol) were added to each well of the assay plate. The plates were then incubated at room temperature and after 60 minutes, changes in the HTRF signal were read with an Envision 2104 multi-label plate reader using excitation of 330 nm and emissions of 615 and 665 nm. Raw data were converted to nM cAMP by interpolation from a cAMP standard curve (as described in the manufacturer's assay protocol) and the percent effect was determined relative to a saturating concentration of the full agonist GLP-17-36 (1 μM) included on each plate. EC50 determinations were made from agonist dose-response curves analyzed with a curve fitting program using a 4-parameter logistic dose response equation.

human GLP-1R [4] = molecular target: human GLP-1R (Homo sapiens, UniProt P43220, G168S); assay: as above; settings: read-out: Assay 1 Emax (%)
Procedure: as §8, §9, §10, §11, §12

[5] = Metabolite profiling of pooled human plasma after repeat oral dosing of Compound 1 (HPLC/UV/MS)
Procedure: Plasma samples from nine human subjects following oral administration of 120 mg BID for 28 days in a clinical study were examined for metabolites.
Individual subject's plasma (from nine human subjects with 120 mg BID dose Day 28) were pooled in proportion to the time period represented by each to yield a pool for profiling that was representative of the AUC (0-12 hr) according to the method of Hamilton et al. [Hamilton R A, Garnett W R, Kline B J. Determination of a mean valproic acid serum level by assay of a single pooled sample. […] Pooled plasma time points were first prepared by aliquoting equal amounts (1.0 mL) of plasma from each subject prior to making a single Hamilton pool. Blank plasma pools were made by taking equal aliquots of predose samples. To a 2 mL aliquot of each pooled plasma sample was added 6 mL of acetonitrile and then mixed. Protein precipitated samples were centrifuged for 5 minutes at 2000×g and the supernatants were transferred to other clean 15 mL centrifuge tubes. Samples were dried using an evaporative centrifuge set to 37° C. Samples were reconstituted using 0.2 mL of 5:95 acetonitrile:water and analyzed by HPLC/UV/MS.
Reconstituted samples were analyzed by positive ion HPLC/UV/MS using a Thermo Orbitrap Elite mass spectrometer operating in positive ion electrospray mode. Xcalibur software version 3.0.63 was used to control the HPLC/UV/MS system. Full scan data were collected at 15,000 resolution. Data dependent product ion scans of the two most intense ions found in the full scan were obtained at 15,000 resolution. The dynamic exclusion function was used with a 10 second exclusion duration after 3 successive product ion scans with an early exclusion if the precursor ion fell below a signal to noise ratio of 20. The HPLC system consisted of an Accela quaternary solvent delivery pump, an Accela autoinjector, an Accela PDA Plus photodiode array detector (Thermo Electron Corporation). Chromatography was performed on a Phenomenex Kinetex column (2.1 mm×100 mm, 2.6 μm) at 45° C. using a HotSleeve column heater (Analytical Sales and Services). The mobile phase was composed of 0.1% formic acid in water (solvent A) and acetonitrile (solvent B). The solvent delivery gradient program was as follows:

[6] = Circulating metabolites of Compound 2 in rat plasma following a 1.0 mg/kg IV bolus dose; type: in vivo; settings: 1.0 mg/kg IV bolus dose of Compound 2, pooled 0.033-24 hrs
Procedure: (§6) Plasma and bile samples were obtained from a bile duct cannulated rat experiment (Study PK-0111) in which a 1.0 mg/kg IV bolus dose was administered to fed male rats (N=3). No control plasma was available from this experiment.
Clin Pharmacol Ther 1981; 29(3):408-13]. The entire volume of each replicate Hamilton pool was combined to create a single pooled sample (576 μL) for analysis.
(§7) Pooled plasma and bile samples were extracted with ACN containing 0.1% formic acid, and after centrifugation at 1900×g, the supernatant was transferred to clean tubes and evaporated under N2 in a Turbovap set at 37° C. Residues were reconstituted in mobile phase (5:95 v:v ACN:0.1% aqueous formic acid) prior to analysis by HPLC/UV/MS^n.
as §3, §4, §5

[7] = Metabolites of Compound 2 in rat bile following a 1.0 mg/kg IV bolus dose; type: in vivo; settings: 1.0 mg/kg IV bolus dose of Compound 2, bile duct cannulated rats, pooled 0-24 hrs
Procedure: as §6
Bile samples (0-3, 3-7, and 7-24 hrs) from individual animals were pooled in proportion to the amount collect in each interval. Then 0.5 mL of each individual pool was combined to prepare a composite sample for analysis.
as §7, §3, §4, §5

T1 sequence (P43220 24-463 L260F): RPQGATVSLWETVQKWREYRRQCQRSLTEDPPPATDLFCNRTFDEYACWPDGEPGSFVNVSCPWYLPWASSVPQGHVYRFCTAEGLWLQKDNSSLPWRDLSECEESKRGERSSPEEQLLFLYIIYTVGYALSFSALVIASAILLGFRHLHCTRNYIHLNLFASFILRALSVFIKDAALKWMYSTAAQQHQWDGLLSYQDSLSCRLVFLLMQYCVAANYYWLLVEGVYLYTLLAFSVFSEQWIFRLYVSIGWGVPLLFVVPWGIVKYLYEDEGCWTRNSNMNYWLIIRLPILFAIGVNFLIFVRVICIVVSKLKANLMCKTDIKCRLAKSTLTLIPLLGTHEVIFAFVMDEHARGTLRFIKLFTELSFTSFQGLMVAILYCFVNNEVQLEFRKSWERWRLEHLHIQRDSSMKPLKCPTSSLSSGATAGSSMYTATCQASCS
Chain of human GLP-1R (Homo sapiens, UniProt P43220, G168S) (P43220 24-463 G168S): as the sequence (P43220 24-463 L260F) above, with G145S, F237L counted along it
Chain of human GLP-1R (Homo sapiens, UniProt P43220) (P43220 24-463 G168S): as the sequence (P43220 24-463 L260F) above, with G145S, F237L counted along it

Structure (SMILES)	metabolite of Compound 2 observed in mouse hepatocyte incubations (mouse hepatocytes)	Relative abundance of metabolite of Compound 2, Mouse (mouse hepatocytes)	metabolite of Compound 2 observed in rat hepatocyte incubations (rat hepatocytes)	Relative abundance of metabolite of Compound 2, Rat (rat hepatocytes)	metabolite of Compound 2 observed in rabbit hepatocyte incubations (rabbit hepatocytes)	Relative abundance of metabolite of Compound 2, Rabbit (rabbit hepatocytes)	metabolite of Compound 2 observed in monkey hepatocyte incubations (monkey hepatocytes)	Relative abundance of metabolite of Compound 2, Monkey (monkey hepatocytes)	metabolite of Compound 2 observed in human hepatocyte incubations (human hepatocytes)	Relative abundance of metabolite of Compound 2, Human (human hepatocytes)	Relative abundance of metabolite of Compound 2, Hepatopack [1]	Emax (human GLP-1R [2])	EC50 (human GLP-1R [2]; geometric mean)	EC50 (human GLP-1R [3])	Emax (human GLP-1R [4])	observed as major or minor metabolite in human plasma ([5]; Compound 1 120 mg BID, Day 28)	Plasma Extracts ([5]; Compound 1 120 mg oral BID, Day 28, HPLC/UV/MS)	detected in rat plasma [6]	detected in rat bile [7]
C[C@]1(c2ccc(Cl)cn2)Oc2cccc(C3CCN(Cc4nc5ccc(C(=O)O)cc5n4CC(O)CCO)CC3)c2O1 (stereo in doubt) [Metabolite 593]	observed in all hepatocyte incubations	+	observed in all hepatocyte incubations	trace	observed in all hepatocyte incubations	+++	observed in all hepatocyte incubations	+	observed in all hepatocyte incubations	**	**								
N#Cc1ccc(COc2cccc(C3CCN(Cc4nc5ccc(C(=O)O[C@@H]6O[C@H](C(=O)O)[C@@H](O)[C@H](O)[C@H]6O)cc5n4C[C@@H]4CCO4)CC3)n2)c(F)c1 [Compound M1, (2S,3S,4S,5R,6S)-6-((2-((4-(6-((4-cyano-2-fluorobenzyl)oxy)pyridin-2-yl)piperidin-1-yl)methyl)-1-(((S)-oxetan-2-yl)methyl)-1H-benzo[d]imidazole-6-carbonyl)oxy)-3,4,5-trihydroxytetrahydro-2H-pyran-2-carboxylic acid]												98%	2500 nM	130 nM	114%	minor metabolite	+		
C[C@]1(c2ccc(Cl)cn2)Oc2cccc(-c3cc[n+](Cc4nc5ccc(C(=O)O)cc5n4C[C@@H]4CCO4)cc3)c2O1 [Metabolite 569]	observed in all hepatocyte incubations	+	observed in all hepatocyte incubations	trace	observed in all hepatocyte incubations	+	observed in all hepatocyte incubations	trace	observed in all hepatocyte incubations	+	+								
C[C@]1(c2ccc(Cl)cn2)Oc2cccc(C3CCN(Cc4nc5ccc(C(=O)O)cc5n4C[C@@H]4CCO4)CC3)c2O1 [Compound 2, 2-((4-((S)-2-(5-chloropyridin-2-yl)-2-methylbenzo[d][1,3]dioxol-4-yl)piperidin-1-yl)methyl)-1-(((S)-oxetan-2-yl)methyl)-1H-benzo[d]imidazole-6-carboxylic acid]												96%			99%			detected	detected
